{"source": "patent US12685741B2", "about": "“N-acetylneuraminic acid compositions and methods of use” (LifeScience AS, priority 2017, dated 2026)", "key": {"herpes": {"test_system": "herpes", "test": "Oral NANA in a subject with chronic herpes outbreaks", "type": "in vivo, human", "settings": "daily dose of 3 grams, outbreaks approximately every other week for 10 years before", "procedure": "A daily dose of 3 grams NANA was administered to a subject suffering from chronic herpes outbreaks which had occurred approximately every other week for 10 years."}, "[1]": {"settings": "cited from earlier work"}, "[2]": {"settings": "rat, in vivo, cited from earlier work"}, "[3]": {"settings": "cited from earlier work", "remark": "listed apart in the source"}}, "data": [{"smiles": "CC(=O)N[C@H]1[C@H]([C@H](O)[C@H](O)CO)OC(O)(C(=O)O)C[C@@H]1O", "note": "(stereo partly drawn) [NANA, N-acetylneuraminic acid]", "values": [{"measurement": "herpes outbreaks", "setting": "herpes", "result": "has not had a herpes outbreak for two months"}, {"measurement": "absorption after ingestion", "setting": "[1]; in vivo", "result": "rapidly absorbed"}, {"measurement": "excretion", "setting": "[1]; via urine", "result": "quickly excreted"}, {"measurement": "toxic effects", "setting": "[2]; po", "result": "No toxic effects have been detected"}, {"measurement": "NOAEL", "setting": "[2]", "result": 974, "unit": "mg/kg body weight/day"}, {"measurement": "solubility in water", "setting": "[3]", "result": "Easily soluble in water"}]}]}
